# Experimental data from patent US9856508B2, “Chemiluminescent compositions, methods, assays and kits for oxidative enzymes” (LIFE TECHNOLOGIES CORPORATION, priority 2010, dated 2018).
# Tested on: CYP2C19
# Test: Isozyme specificity of AMPPD-Bn in pooled human liver microsomes (HLMs)
# Format: biochemical
# Settings: FIG. 4B, 25 min, 25° C., 20 μM AMPPD-Bn, 100 mM potassium phosphate buffer, pH 7.4
# Procedure: FIG. 4A and FIG. 4B compare CYP450 isozyme specificity of 1,2-dioxetane substrate AMPPD-Bn in recombinant human microsomes (rhCYPs) and human liver microsomes. FIG. 4A is a graphic representation of isozyme specificity of AMPPD-Bn in rhCYP microsomes. Assays were performed at 25° C. for 25 min using 10 μM AMPPD-Bn, 5 nM rhCYP450 and isozyme-preferred potassium phosphate buffer, pH 7.4. […] FIG. 4B is a graphic representation of isozyme specificity of AMPPD-Bn in pooled human liver microsomes (HLMs). Assays were performed for 25 min at 25° C. using 20 μM AMPPD-Bn and 100 mM potassium phosphate buffer, pH 7.4. Positive (3A4) and negative (2C19, 2D6 and microsome only) controls were performed using 5 nM rhCYP450 microsomes. Pooled HLMs were assayed at 0.5, 0.25, 0.125, or 0.0625 mg/ml. Assays were performed either with or without 2 μM ketoconazole to indicate CYP3A family specificity. […] All assays were performed using the 2-step assay method (Example 48, Format A).
# The protocol follows the 2-Step endpoint assay format described in Example 48 (Format A). […] The assays are incubated for either 10 to 25 min before addition of Accelerator and reading of luminescent signal on a luminometer. For relative quantification, samples can be compared to a standard curve of known enzyme concentration, bearing in mind that recombinant enzyme can not fully compare to native enzyme. […]
compound,measurement,value
COC1(c2cccc(OCc3ccccc3)c2)OOC12C1CC3CC(C1)CC2C3 (stereo not shown) [AMPPD-Bn],contribution of CYP2C19 activity to AMPPD-Bn oxidation in HLMs,does not significantly contribute
